Laboratory results published in patent US20030130180A1, “Utilization of an aminopeptidase inhibitor” (priority 2000, published 2003).

System: Karpas cells
Test: Detection of surface protein combinations of the protein network on untreated (V1) and actinonin-treated (V2) Karpas cells
Assay type: cell-based
Conditions: for V2 no. of cells / V2 no. of cells In 1/1OOO: actinonin-treated Karpas cells
Source text: Principally, detecting of the surface protein combinations may comprise procedural steps of an automated method for determining molecular classes, molecular groups or molecular parts in a solid or liquid object according to DE 197 09 348 C. In these steps, surface proteins may be examined and measured in one and the same object, i.e. in a sample of immune cells and/or tumor cells for example, by sequentially applying reagent solutions Yn (n=1,2,3, . . . N) by means of an automated apparatus, said procedural steps being: I. taking a first reagent solution Y1 from a vessel containing the reagent solution, II. applying said reagent solution Y1 to the object which is on an object slide, III. allowing the reagent solution to react for an automatically set period of time, IV. recording at least one individual labeling pattern of the object previously labeled with said first reagent solution Y1, V. repeating steps I-IV by applying said first reagent solution Y1 or a second reagent solution Y2 or a mixture of said first and second reagent solutions, and VI. repeating steps I to V with further reagent solutions Yn (n=2,3, . . . N) or a mixture thereof and whereby the labeling distribution patterns obtained in each cycle of the method are turned into a complex molecular combination pattern of the object to be examined by computer-aided image overlay. From this combination pattern, information may be gained on the presence of the above mentioned proteins, thus also allowing detection of the surface protein combinations, if the reagent solutions used contain labeled substances directed against the proteins in question. In numerous examinations, it was possible to identify the 30 cell surface proteins already listed above which belong to a specific protein network controlling the early polarization stages of tumor cells and immune cells. In a further examination, surface protein combinations of this protein network of Karpas cells were detected, both in untreated form and after treatment with the aminopeptidase inhibitor actinonin. For this purpose, two groups V1 and V2 of Karpas cells were formed, with the cells of group Vl remaining untreated, while the cells of group V2 were treated with actinonin. Table 2 lists those surface protein combinations which are present both in the actinonin-treated cells and in the untreated cells. However, this table and the further tables 3 and 4 only give examples of 18 of the 30 proteins, with the detected proteins being designated 1 and the non-detected proteins being designated 0. The proteins are continuously numbered 1 to 18, with the nomenclature being notable from table 1. [table] The cell numbers stated in tables 2 to 4 refer to each 1,000 cells examined in groups V1 and V2. Table 3 lists the surface protein combinations which only occur in the untreated Karpas cells and are never found in the actinonin-treated Karpas cells. The number of protein combinations listed in this table 3 amounts to 131. Finally, table 4 exclusively lists those surface protein combinations which occur exclusively in the actinonin-treated Karpas cells. It may be gathered from tables 2 to 4 that, if one examines merely 18 proteins of the 30 proteins, a total of 394 different surface protein combinations will occur, with a total of 334 different combinations occurring in the untreated cells and a total of 263 different combinations being detected in the treated cells.

CCCCC[C@H](CC(=O)NO)C(=O)N[C@H](C(=O)N1CCC[C@H]1CO)C(C)C [actinonin]
V2 no. of cells (protein code No. 54, proteins 1-18 binary 011000001100001100): 1.5 1/1OOO | V2 no. of cells (protein code No. 55, proteins 1-18 binary 001000010100001000): 2.0 1/1OOO | V2 no. of cells (protein code No. 57, proteins 1-18 binary 101100110111011000): 2.4 1/1OOO | V2 no. of cells (protein code No. 58 (first line so numbered), proteins 1-18 binary 001100011101001000): 1.7 1/1OOO | V2 no. of cells (protein code No. 58 (second line so numbered), proteins 1-18 binary 000000011101000000): 2.9 1/1OOO | V2 no. of cells (protein code No. 59, proteins 1-18 binary 101100010111001000): 1.5 1/1OOO | V2 no. of cells (protein code No. 60, proteins 1-18 binary 001000000101001000): 1.5 1/1OOO | V2 no. of cells (protein code No. 61, proteins 1-18 binary 000000010111001000): 1.6 1/1OOO | V2 no. of cells (protein code No. 62, proteins 1-18 binary 001000000001001000): 0.6 1/1OOO | V2 no. of cells (protein code No. 63, proteins 1-18 binary 000000010100001000): 1.6 1/1OOO | V2 no. of cells (protein code No. 64, proteins 1-18 binary 000000011001000000): 2.1 1/1OOO | V2 no. of cells (protein code No. 65, proteins 1-18 binary 000000000011000000): 0.7 1/1OOO | V2 no. of cells (protein code No. 66, proteins 1-18 binary 101000010101011000): 1.0 1/1OOO | V2 no. of cells (protein code No. 67, proteins 1-18 binary 001100011111011000): 1.8 1/1OOO | V2 no. of cells (protein code No. 68, proteins 1-18 binary 000000000010000000): 0.1 1/1OOO | V2 no. of cells (protein code No. 69, proteins 1-18 binary 001000000011000000): 1.2 1/1OOO | V2 no. of cells (protein code No. 70, proteins 1-18 binary 010000001100000100): 1.5 1/1OOO | V2 no. of cells In 1/1OOO (surface protein combination No. 93, binary code 011100011101001000): 0.7 1/1OOO | V2 no. of cells In 1/1OOO (surface protein combination No. 94, binary code 000000011000000000): 1.0 1/1OOO | V2 no. of cells In 1/1OOO (surface protein combination No. 95, binary code 000000001101000000): 1.4 1/1OOO | V2 no. of cells In 1/1OOO (surface protein combination No. 96, binary code 001100011101011000): 0.3 1/1OOO | V2 no. of cells In 1/1OOO (surface protein combination No. 97, binary code 011000011101001100): 0.7 1/1OOO | V2 no. of cells In 1/1OOO (surface protein combination No. 98, binary code 011000011100001100): 0.9 1/1OOO | V2 no. of cells In 1/1OOO (surface protein combination No. 99, binary code 000000011101001000): 0.9 1/1OOO | V2 no. of cells In 1/1OOO (surface protein combination No. 100, binary code 010000001000000000): 0.3 1/1OOO | V2 no. of cells In 1/1OOO (surface protein combination No. 101, binary code 010000011101000000): 0.5 1/1OOO | V2 no. of cells In 1/1OOO (surface protein combination No. 102, binary code 001100010101011100): 0.6 1/1OOO | V2 no. of cells In 1/1OOO (surface protein combination No. 103, binary code 011000011001000000): 0.7 1/1OOO | V2 no. of cells In 1/1OOO (surface protein combination No. 104, binary code 001000001001000000): 0.8 1/1OOO | V2 no. of cells In 1/1OOO (surface protein combination No. 105, binary code 000000010111000000): 0.9 1/1OOO | V2 no. of cells In 1/1OOO (surface protein combination No. 107, binary code 000100010001001000): 0.2 1/1OOO | V2 no. of cells In 1/1OOO (surface protein combination No. 109, binary code 000100000000000000): 0.6 1/1OOO | V2 no. of cells In 1/1OOO (surface protein combination No. 110, binary code 011000011111001000): 0.8 1/1OOO | V2 no. of cells In 1/1OOO (surface protein combination No. 111, binary code 001000000100000000): 0.8 1/1OOO | V2 no. of cells In 1/1OOO (surface protein combination No. 112, binary code 101000010111001000): 0.2 1/1OOO | V2 no. of cells In 1/1OOO (surface protein combination No. 113, binary code 011000011111011000): 0.2 1/1OOO | V2 no. of cells In 1/1OOO (surface protein combination No. 114, binary code 011000001100000000): 0.2 1/1OOO | V2 no. of cells In 1/1OOO (surface protein combination No. 115, binary code 001000000111001000): 0.3 1/1OOO | V2 no. of cells In 1/1OOO (surface protein combination No. 116, binary code 101100010101001000): 0.6 1/1OOO | V2 no. of cells In 1/1OOO (surface protein combination No. 117, binary code 101100010011011000): 0.6 1/1OOO | V2 no. of cells In 1/1OOO (surface protein combination No. 118, binary code 101100110111011100): 0.7 1/1OOO | V2 no. of cells In 1/1OOO (surface protein combination No. 119, binary code 000000010010000000): 0.1 1/1OOO | V2 no. of cells In 1/1OOO (surface protein combination No. 120, binary code 011100011111011000): 0.2 1/1OOO | V2 no. of cells In 1/1OOO (surface protein combination No. 121, binary code 001000011011001000): 0.2 1/1OOO | V2 no. of cells In 1/1OOO (surface protein combination No. 122, binary code 011000001100000100): 0.3 1/1OOO | V2 no. of cells In 1/1OOO (surface protein combination No. 123, binary code 000000001100001000): 0.3 1/1OOO | V2 no. of cells In 1/1OOO (surface protein combination No. 124, binary code 110000001100001100): 0.5 1/1OOO | V2 no. of cells In 1/1OOO (surface protein combination No. 125, binary code 010000011100001000): 0.5 1/1OOO | V2 no. of cells In 1/1OOO (surface protein combination No. 126, binary code 001000110111011000): 0.5 1/1OOO | V2 no. of cells In 1/1OOO (surface protein combination No. 127, binary code 001000011111000000): 0.5 1/1OOO | V2 no. of cells In 1/1OOO (surface protein combination No. 128, binary code 111000001100001100): 0.7 1/1OOO | V2 no. of cells In 1/1OOO (surface protein combination No. 129, binary code 011000011100001000): 0.7 1/1OOO | V2 no. of cells In 1/1OOO (surface protein combination No. 130, binary code 101100010101011100): 0.2 1/1OOO | V2 no. of cells In 1/1OOO (surface protein combination No. 131, binary code 101000010101001000): 0.3 1/1OOO | V2 no. of cells In 1/1OOO (surface protein combination No. 134, binary code 010000011100001100): 0.5 1/1OOO | V2 no. of cells In 1/1OOO (surface protein combination No. 135, binary code 010000011100000000): 0.5 1/1OOO | V2 no. of cells In 1/1OOO (surface protein combination No. 136, binary code 001100010101001100): 0.5 1/1OOO | V2 no. of cells In 1/1OOO (surface protein combination No. 137, binary code 001100000000001000): 0.5 1/1OOO | V2 no. of cells In 1/1OOO (surface protein combination No. 138, binary code 000000001001001000): 0.6 1/1OOO | V2 no. of cells In 1/1OOO (surface protein combination No. 139, binary code 011000001101000000): 0.1 1/1OOO | V2 no. of cells In 1/1OOO (surface protein combination No. 140, binary code 000000000011001000): 0.1 1/1OOO | V2 no. of cells In 1/1OOO (surface protein combination No. 141, binary code 101000010111011100): 0.2 1/1OOO | V2 no. of cells In 1/1OOO (surface protein combination No. 142, binary code 001100000101001000): 0.2 1/1OOO | V2 no. of cells In 1/1OOO (surface protein combination No. 143, binary code 011100011111001000): 0.3 1/1OOO | V2 no. of cells In 1/1OOO (surface protein combination No. 144, binary code 001100010111000000): 0.3 1/1OOO | V2 no. of cells In 1/1OOO (surface protein combination No. 145, binary code 001000000100001000): 0.3 1/1OOO | V2 no. of cells In 1/1OOO (surface protein combination No. 146, binary code 011000011001001000): 0.5 1/1OOO | V2 no. of cells In 1/1OOO (surface protein combination No. 147, binary code 111100011100011100): 0.1 1/1OOO | V2 no. of cells In 1/1OOO (surface protein combination No. 148, binary code 110000001100011100): 0.1 1/1OOO | V2 No. of cells In 1/1000, total (total over the 60 combinations occurring exclusively in actinonin-treated Karpas cells): 9.1 1/1000
